Our source for the IC50 values is patent US20240239775A1, “FXR REGULATOR, PREPARATION METHOD THEREFOR, PHARMACEUTICAL COMPOSITION THEREOF AND USE THEREOF” (QINGDAO RUIJI MEDICAL TECHNOLOGY CO., LTD., priority 2021, published 2024).

pIC50: −log10 of the molar value.

The target in one assay is T1, FXR (Homo sapiens, UniProt Q96RI1).
T1 construct: 5 μL of 20 nM FXR-LBD Complete Coregulator buffer G; purchased ThermoFisher PV4833
T1 sequence (Q96RI1 262-486 limits assumed): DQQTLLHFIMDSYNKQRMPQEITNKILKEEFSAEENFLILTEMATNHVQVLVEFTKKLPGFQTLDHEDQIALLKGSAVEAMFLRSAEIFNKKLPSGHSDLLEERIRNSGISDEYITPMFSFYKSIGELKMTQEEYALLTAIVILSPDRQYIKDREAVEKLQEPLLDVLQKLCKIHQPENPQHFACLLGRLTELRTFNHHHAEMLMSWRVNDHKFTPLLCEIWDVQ
Nature of the assay: FXR antagonist screening by TR-FRET (LanthaScreen TR-FRET FXR co-activation assay kit). The settings on record: Table 1.1, FXR antagonistic activity; TR-FRET with CDCA; geometric means of at least two independent runs. In kind it is biochemical. As to the method:
FXR activity was evaluated by time-resolved fluorescence resonance energy transfer (TR-FRET) assay, using LanthaScreen™ TR-FRET FXR co-activation assay kit (ThermoFisher, Cat. PV4833). For agonist screening, 10 μL of Complete Coregulator buffer G containing the corresponding concentration of the compound to be tested, 5 μL of 20 nM FXR-LBD Complete Coregulator buffer G, and 5 μL of 2.0 μM Fluorescein-SRC2-2/20 nM Tb-anti-GST antibody Complete Coregulator buffer G were added to each well of a 384-well black plate (Coring) in sequence. […] Three duplicate wells were set up for each compound, with CDCA as the positive compound and DMSO as the solvent control. For antagonist screening, 5 μL of Complete Coregulator buffer G containing the corresponding concentration of the compound to be tested, 5 μL of 20 nM FXR-LBD Complete Coregulator buffer G, 5 μL of 200 μM CDCA FXR-LBD Complete Coregulator buffer G, and 5 μL of 2.0 μM Fluorescein-SRC2-2/20 nM Tb-anti-GST antibody Complete Coregulator buffer G were added to each well of a 384-well black plate (Coring) in sequence and incubated at room temperature for 10 h. Following operations were the same as those for agonist screening
For orientation: In TR-FRET formats the signal depends on donor and acceptor labels being close together.
The pIC50 is −log10 of the IC50, conventionally taken in molar units. Low values mean a large IC50, high ones a small IC50. `CCOC(=O)c1oc2ccc(S(=O)(=O)N(CCc3ccccc3)c3ccccc3N3CCNCC3)cc2c1C` [Example M9-1, ethyl 3-methyl-5-(N-phenethyl-N-(2-(piperazin-1-yl)phenyl)sulfamoyl)benzofuran-2-carboxylate] had a pIC50 of 4.00 to 4.30. With `CCOC(=O)c1oc2ccc(S(=O)(=O)N(CCc3ccccc3)Cc3c(C)cccc3C)cc2c1C` [Example M4-50, ethyl 3-methyl-5-(N-(2,6-dimethylbenzyl)-N-phenethylsulfamoyl)benzofuran-2-carboxylate], the pIC50 is 4.00 to 4.30.

`CCOC(=O)c1oc2ccc(S(=O)(=O)N(CCc3ccccc3)c3ccc(N4CCN(C(=O)c5ccccc5)CC4)cc3)cc2c1C` [Example M8-69, ethyl 3-methyl-5-(N-(4-(4-benzoylpiperazin-1-yl)phenyl)-N-phenethylsulfamoyl)-3-methylbenzofuran-2-carboxylate] had a pIC50 of 4.00 to 4.30.

Regarding `CCOC(=O)c1oc2ccc(S(=O)(=O)N(CCc3ccccc3)Cc3c(F)cccc3F)cc2c1C` [Example M4-46, ethyl 3-methyl-5-(N-(2,6-difluorobenzyl)-N-phenethylsulfamoyl)benzofuran-2-carboxylate], the pIC50 was 4.00 to 4.30. Compound `CCOC(=O)c1oc2ccc(S(=O)(=O)N(CCc3ccccc3)Cc3ccccc3C)cc2c1C` [Example M4-17, ethyl 3-methyl-5-(N-(2-methylbenzyl)-N-phenethylsulfamoyl)benzofuran-2-carboxylate] gave a pIC50 of 4.00 to 4.30. Still for that read-out and setting: in the case of `CCOC(=O)c1oc2ccc(S(=O)(=O)N(CCc3ccccc3)Cc3cccc4cccnc34)cc2c1C` [Example M4-44, ethyl 3-methyl-5-(N-(quinolin-8-ylmethyl)-N-phenethylsulfamoyl)benzofuran-2-carboxylate] it was 4.00 to 4.30.

Regarding `CCOC(=O)c1oc2ccc(S(=O)(=O)N(CCc3ccccc3)Cc3ccc(C(=O)OC(C)(C)C)cc3)cc2c1C` [Example M4-40, ethyl 3-methyl-5-(N-(4-(tert-butoxycarbonyl)benzyl)-N-phenethylsulfamoyl)benzofuran-2-carboxylate], the negative logarithm of the IC50 (pIC50) is 4.00 to 4.30. Regarding `CCOC(=O)c1oc2ccc(S(=O)(=O)N(CCc3ccccc3)Cc3ccc(F)cc3C(F)(F)F)cc2c1C` [Example M4-57, ethyl 3-methyl-5-(N-(2-(trifluoromethyl)-4-fluorobenzyl)-N-phenethylsulfamoyl)benzofuran-2-carboxylate], the negative logarithm of the IC50 (pIC50) was 4.00 to 4.30. In the case of `Cc1c(C(=O)O)oc2ccc(S(=O)(=O)N(CCc3ccccc3)Cc3ccc(Oc4ccccc4)cc3)cc12` [Example F27-S86], the pIC50 was 4.30 to 5.00. Consider `CCOC(=O)c1oc2ccc(S(=O)(=O)N(CCc3ccccc3)Cc3cccc(Cl)c3)cc2c1C` [Example M4-21, ethyl 3-methyl-5-(N-(3-chlorobenzyl)-N-phenethylsulfamoyl)benzofuran-2-carboxylate], for which the pIC50 is 4.00 to 4.30. In the case of `Cc1c(C(=O)O)oc2ccc(S(=O)(=O)N(CCc3ccccc3)Cc3ccc(C(=O)OC(C)(C)C)cc3)cc12` [Example F27-S40, 3-methyl-5-(N-(4-(tert-butoxycarbonyl)benzyl)-N-phenethylsulfamoyl)benzofuran-2-carboxylic acid], the pIC50 was 4.30 to 5.00. In the case of `CCOC(=O)c1oc2ccc(S(=O)(=O)N(CCc3ccccc3)Cc3ccccc3C(F)(F)F)cc2c1C` [Example M4-18, ethyl 3-methyl-5-(N-(2-trifluoromethylbenzyl)-N-phenethylsulfamoyl)benzofuran-2-carboxylate], the pIC50 was 4.00 to 4.30. Compound `CCOC(=O)c1oc2ccc(S(=O)(=O)N(CCc3ccccc3)c3ccc(N4CCN(C(=O)OC(C)(C)C)CC4)cc3)cc2c1C` [Example M8-65, ethyl 3-methyl-5-(N-(4-(4-(tert-butoxycarbonyl)piperazin-1-yl)phenyl)-N-phenethylsulfamoyl)benzofuran-2-carboxylate] had a pIC50 of 4.00 to 4.30.

The same assay, now with this note: Table 1.2, FXR antagonistic activity; TR-FRET with CDCA; geometric means of at least two independent runs.
For the compound `Cc1c(C(=O)O)oc2ccc(S(=O)(=O)N(CCc3ccccc3)c3ccccc3N3CCN(C(=O)c4ccccn4)CC3)cc12` [Example F27-S117, 3-methyl-5-(N-phenethyl-N-(2-(4-pyridinecarbonylpiperazin-1-yl)phenyl)sulfamoyl)benzofuran-2-carboxylic acid], the pIC50 is 5.00 to 7.00. Take `CCOC(=O)c1oc2ccc(S(=O)(=O)N(CCc3ccccc3)c3ccccc3N3CCN(C(=O)c4ccc(Cl)s4)CC3)cc2c1C` [Example M10-128, Ethyl 5-(N-(2-(4-(5-chlorothiophene-2-carbonyl)piperazin-1-yl)phenyl)-N-phenethylsulfamoyl)-3-methylbenzofuran-2-carboxylate]: the pIC50 was 4.00 to 4.30. In the case of `Cc1c(C(=O)O)oc2ccc(S(=O)(=O)N(CCc3ccccc3)c3ccccc3N3CCN(C(=O)C4CCCS4)CC3)cc12` (centres unmarked) [Example F27-S143, 5-(N-(2-(4-(tetrahydrothiophene-2-formyl)piperazin-1-yl)phenyl)-N-phenethylsulfamoyl)3-methyl benzofuran-2-carboxylic acid], the pIC50 is 5.00 to 7.00. Turning to `Cc1c(C(=O)O)oc2ccc(S(=O)(=O)N(CCc3ccccc3)c3ccccc3N3CC4CC(C3)N4C(=O)c3sccc3Br)cc12` [Example F27-S151, 5-(N-(2-(6-(3-bromothiophene-2-carbonyl)-3,6-diazabicyclo[3.1.1]heptan-3-yl)phenyl)-N-phenethylsulfamoyl)-3-methylbenzofuran-2-carboxylic acid], the pIC50 was 5.00 to 7.00.

`Cc1c(C(=O)O)oc2ccc(S(=O)(=O)N(CCc3ccccc3)c3ccccc3N3CCN(C(=O)c4cc[nH]n4)CC3)cc12` [Example F27-S130, 5-(N-(2-(4-(1H-pyrazole-3-carbonyl)piperazin-1-yl)phenyl)-N-phenethylsulfamoyl)-3-methylbenzo furan-2-carboxylic acid] gave a pIC50 of 5.00 to 7.00. With `CCOC(=O)c1sc2ccc(S(=O)(=O)N(CCc3ccc(Cl)cc3)c3ccccc3N3CCN(C(=O)c4sccc4Br)CC3)cc2c1C` [Example M10-165, ethyl 5-(N-(2-(4-(3-bromothiophene-2-carbonyl)piperazin-1-yl)phenyl)-N-(4-chlorophenylethyl)sulfamoyl)-3-methylbenzothiophene-2-carboxylate], the pIC50 is 4.00 to 4.30. The compound `CCOC(=O)c1sc2ccc(S(=O)(=O)N(CCc3cccs3)c3ccccc3N3CCN(C(=O)c4sccc4Br)CC3)cc2c1C` [Example M10-183, Ethyl 5-(N-(2-(4-(3-bromothiophene-2-carbonyl)piperazin-1-yl)phenyl)-N-(2-(thiophen-2-yl)ethyl)sulfamoyl)-3-methylbenzothiophene-2-carboxylate] showed a pIC50 of 4.00 to 4.30. The compound `Cc1c(C(=O)O)oc2ccc(S(=O)(=O)N(CCc3ccccc3)c3ccccc3N3C4CCC3CN(C(=O)c3sccc3Br)C4)cc12` [Example F27-S155, 5-(N-(2-(3-(3-bromothiophene-2-formyl)-3,8-diazepine[3.2.1]cyclooctan-8-yl)phenyl)-N-phenethylsulfamoyl)3-methylbenzofuran-2-carboxylic acid] gave a pIC50 of 5.00 to 7.00. Turning to `CCOC(=O)c1sc2ccc(S(=O)(=O)N(CCc3cccc(Cl)c3)c3ccccc3N3CCN(C(=O)c4sccc4Br)CC3)cc2c1C` [Example M10-171, Ethyl 5-(N-(2-(4-(3-bromothiophene-2-carbonyl)piperazin-1-yl)phenyl)-N-(3-chlorophenylethyl)sulfamoyl)-3-methylbenzothiophene-2-carboxylate], the pIC50 is 4.00 to 4.30.

In turn, `CCOC(=O)c1sc2ccc(S(=O)(=O)N(CCc3cccc(OC)c3)c3ccccc3N3CCN(C(=O)c4sccc4Br)CC3)cc2c1C` [Example M10-170, Ethyl 5-(N-(2-(4-(3-bromothiophene-2-carbonyl)piperazin-1-yl)phenyl)-N-(3-methoxyphenethyl)sulfamoyl)-3-methylbenzothiophene-2-carboxylate] gave a pIC50 of 4.00 to 4.30. Turning to `Cc1ccc(C(=O)N2CCN(c3ccccc3N(CCc3ccccc3)S(=O)(=O)c3ccc4oc(C(=O)O)c(C)c4c3)CC2)s1` [Example F27-S139, 5-(N-(2-(4-(5-methylthiophene-2-formyl)piperazin-1-yl)phenyl)-N-phenethylsulfamoyl)3-methylbenzofuran-2-carboxylic acid], the pIC50 was 5.00 to 7.00.

On to `CCOC(=O)c1sc2ccc(S(=O)(=O)N(CCc3ccccc3Cl)c3ccccc3N3CCN(C(=O)c4sccc4Br)CC3)cc2c1C` [Example M10-172, Ethyl 5-(N-(2-(4-(3-bromothiophene-2-carbonyl)piperazin-1-yl)phenyl)-N-(2-chlorophenylethyl)sulfamoyl)-3-methylbenzothiophene-2-carboxylate], for which the pIC50 is 4.00 to 4.30.

Regarding `CCOC(=O)c1cc2ccc(S(=O)(=O)N(CCc3ccccc3)c3ccccc3N3CCN(C(=O)c4sccc4Br)CC3)cc2s1` [Example M10-160, Ethyl 6-(N-(2-(4-(3-bromothiophene-2-carbonyl)piperazin-1-yl)phenyl)-N-phenethylsulfamoyl)benzo[b]thiophene-2-carboxylate], the pIC50 was 4.00 to 4.30.
